Results published in the supplement of paper PMC10307832.

Legend:
Assay in all cases: relative viability (nuclei count vs DMSO), 5 days (fraction); higher = more cells survive
Adavosertib + OSI-027 = compound: C=CCn1c(=O)c2cnc(Nc3ccc(N4CCN(C)CC4)cc3)nc2n1-c1cccc(C(C)(C)O)n1 [Adavosertib] + COc1cccc2cc(-c3nc([C@H]4CC[C@H](C(=O)O)CC4)n4ncnc(N)c34)[nH]c12 [OSI-027] (partner 0.5 µM)
Method in brief: (§1)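 Lung cancer cell lines in 1536-well plates got either a single drug or a fixed anchor-drug dose together with five library-drug doses (not always all listed) in √10 steps, by pin tool, on the day after seeding. Nuclei were counted after 5 days, and relative viability is the treated-to-vehicle ratio of nuclei counts. Values are medians of duplicate plates.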

Adavosertib + Linsitinib = compound: C=CCn1c(=O)c2cnc(Nc3ccc(N4CCN(C)CC4)cc3)nc2n1-c1cccc(C(C)(C)O)n1 [Adavosertib] + C[C@]1(O)C[C@@H](c2nc(-c3ccc4ccc(-c5ccccc5)nc4c3)c3c(N)nccn32)C1 [Linsitinib] (partner 1 µM)
Method in brief: as §1

Adavosertib + Phenformin = compound: C=CCn1c(=O)c2cnc(Nc3ccc(N4CCN(C)CC4)cc3)nc2n1-c1cccc(C(C)(C)O)n1 [Adavosertib] + N=C(N)NC(=N)NCCc1ccccc1 [Phenformin] (partner 250 µM)
Method in brief: as §1

Nelarabine + Luminespib = compound: COc1nc(N)nc2c1ncn2[C@@H]1O[C@H](CO)[C@@H](O)[C@@H]1O [Nelarabine] + CCNC(=O)c1noc(-c2cc(C(C)C)c(O)cc2O)c1-c1ccc(CN2CCOCC2)cc1 [Luminespib] (partner 0.01 µM)
Method in brief: as §1

Cell Line	relative viability (Adavosertib + OSI-027; first compound 0.01 µM)	relative viability (Adavosertib + OSI-027; first compound 0.03162 µM)	relative viability (Adavosertib + OSI-027; first compound 0.1 µM)	relative viability (Adavosertib + OSI-027; first compound 0.3162 µM)	relative viability (Adavosertib + Linsitinib; first compound 0.01 µM)	relative viability (Adavosertib + Linsitinib; first compound 0.03162 µM)	relative viability (Adavosertib + Linsitinib; first compound 0.1 µM)	relative viability (Adavosertib + Linsitinib; first compound 0.3162 µM)	relative viability (Adavosertib + Phenformin; first compound 0.01 µM)	relative viability (Adavosertib + Phenformin; first compound 0.03162 µM)	relative viability (Adavosertib + Phenformin; first compound 0.1 µM)	relative viability (Adavosertib + Phenformin; first compound 0.3162 µM)	relative viability (Nelarabine + Luminespib; first compound 0.01 µM)	relative viability (Nelarabine + Luminespib; first compound 0.03162 µM)	relative viability (Nelarabine + Luminespib; first compound 0.1 µM)	relative viability (Nelarabine + Luminespib; first compound 0.3162 µM)	relative viability (Nelarabine + Luminespib; first compound 1 µM)
NCI-H2405	0.668	0.667	0.669	0.628	0.959	0.966	1	0.995	0.458	0.414	0.405	0.396	0.697	0.844	0.646	0.762	0.696
NCI-H460	0.758	0.667	0.561	0.341	0.971	0.777	0.594	0.285	0.523	0.566	0.493	0.317	0.0293	0.0328	0.0352	0.0376	0.0317
NCI-H650	0.476	0.606	0.526	0.446	0.785	0.926	0.87	0.712	0.422	0.498	0.458	0.377	0.857	0.726	0.759	0.708	0.718
NCI-H661	0.762	0.723	0.685	0.284	0.609	0.648	0.463	0.417	0.28	0.264	0.276	0.252	1.04	1.09	0.928	0.914	0.911
LK-2	0.17	0.208	0.207	0.216	0.761	0.742	0.522	0.424	0.75	0.435	0.364	0.397	0.161		0.178	0.146	0.173
LU99A	0.314	0.282	0.307	0.298	0.575	0.656	0.499	0.417	0.963	0.808	0.982	0.826	0.239	0.235	0.339	0.282	0.279
EPLC-272H	0.31	0.279	0.242	0.208	1.12	1.14	0.958	0.878	0.314	0.306	0.353	0.245	0.137	0.483	0.446	0.259	0.301
NCI-H2087	0.591	0.685	0.603	0.478	0.906	1.11	1.07	0.87	0.456	0.442	0.525	0.461	0.193	0.125	0.155	0.18	0.196
HCC-827	0.779	0.832	0.738	0.724	0.985	0.974	1.03	0.991	0.391	0.434	0.46	0.387	0.889	0.68	0.644	0.511	0.385
ABC-1	0.411	0.406	0.405	0.419	1.03	0.849	0.647	0.682	0.228	0.237	0.208	0.222	0.71	0.705	0.535	0.309	0.859
